For assay [1], the system named is Sprague-Dawley rats. Briefly: Blood pressure change in Sprague-Dawley rats (Example 4). The format is in vivo, rat. To be noted: conscious male Sprague-Dawley rats, PO, 10 mg/kg. Here is the method: Male rats (250-350 g body weight, supplied by Harlan Laboratories) were anesthetized with ketamine/xylazine and a heparinized saline fluid filled catheter implanted into the right femoral artery. The catheter was exteriorized between the scapula, capped, and the animal allowed to recover for at least 7 days post surgery prior to any compound testing. Prior to testing animals were maintained on normal diet, with free access to drinking water, under a 12 hour light-dark cycle.
On the day of experimentation, under inhaled isoflurane anesthesia, the catheter was uncapped and connected to a tether (Instech Labs) and pressure transducer (Harvard Apparatus). Blood pressure and heart rate were subsequently captured and analyzed with a dedicated data capture system (PowerLab, ADInstruments). Data sampling rates were set at 1 cycle per second. Once connected, each rat was allowed to recover from anesthesia and baseline blood pressure and heart rate levels were established in these conscious, freely-moving animals. Once baseline was established either vehicle (0.5% methylcellulose or 100% PEG400) or test article was administered orally (PO, 10 mg/kg) and the effects on blood pressure and heart rate monitored for up to 24 hours.
Data are reported as hourly averages and changes in blood pressure are calculated from subtracting individual baseline on an hourly basis.

For assay [2], the target named is T1, soluble guanylate cyclase (sGC) (Homo sapiens (Human), UniProt Q02108+Q02153). Nature of the assay: sGC-HEK-cGMP assay with SNP incubation, LC/MS detection (Example 2A). The format is cell-based. The conditions noted are these: HEK293 cells, 10 μM SNP, LC/MS detection; for Emax: 100% = BAY 41-2272 at 10 μM, read-out: HEK assay Emax - unconstrained (%); for EC50: top of curve not fitted to 100%, read-out: HEK assay EC50 - unconstrained. In outline:
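HEK293 cells with endogenous sGC were pretreated 15 min at 37 °C with 0.5 mM IBMX, then exposed 10 min at 37 °C to compound (added from 0.0001–30 μM solutions) plus SNP (from 10 μM solution). After 0.1 M HCl lysis, cGMP was quantified by LC/MS against a standard curve.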

Assay [3] concerns the target T1, soluble guanylate cyclase (sGC). Nature of the assay: sGC-HEK-cGMP assay, new protocol with DETA-NONOate, LC/MS detection (Example 2C). The format is cell-based. To be noted: read-out: Absolute EC50 (uM) - binned.

As usually defined, the Emax is the greatest response seen or fitted, relative to the assay's reference. The EC50 is the concentration at which the effect is half-maximal.

T1 sequence (Q02153 whole entry): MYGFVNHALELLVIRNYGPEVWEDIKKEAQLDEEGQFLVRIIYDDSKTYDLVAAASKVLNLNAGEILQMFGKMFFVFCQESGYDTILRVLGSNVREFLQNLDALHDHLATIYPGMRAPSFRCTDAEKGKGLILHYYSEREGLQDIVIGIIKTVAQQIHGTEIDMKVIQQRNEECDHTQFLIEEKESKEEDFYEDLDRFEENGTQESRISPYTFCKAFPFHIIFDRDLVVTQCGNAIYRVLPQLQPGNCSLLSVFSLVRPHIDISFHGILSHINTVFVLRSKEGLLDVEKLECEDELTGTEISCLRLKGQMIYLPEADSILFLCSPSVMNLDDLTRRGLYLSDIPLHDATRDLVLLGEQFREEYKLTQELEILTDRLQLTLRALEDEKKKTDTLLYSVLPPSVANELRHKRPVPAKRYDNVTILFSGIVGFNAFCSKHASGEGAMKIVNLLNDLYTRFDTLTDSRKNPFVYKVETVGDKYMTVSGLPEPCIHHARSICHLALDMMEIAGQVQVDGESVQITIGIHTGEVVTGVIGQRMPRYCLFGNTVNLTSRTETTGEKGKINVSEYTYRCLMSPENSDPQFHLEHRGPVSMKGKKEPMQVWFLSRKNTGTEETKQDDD
T1 sequence (Q02108 whole entry): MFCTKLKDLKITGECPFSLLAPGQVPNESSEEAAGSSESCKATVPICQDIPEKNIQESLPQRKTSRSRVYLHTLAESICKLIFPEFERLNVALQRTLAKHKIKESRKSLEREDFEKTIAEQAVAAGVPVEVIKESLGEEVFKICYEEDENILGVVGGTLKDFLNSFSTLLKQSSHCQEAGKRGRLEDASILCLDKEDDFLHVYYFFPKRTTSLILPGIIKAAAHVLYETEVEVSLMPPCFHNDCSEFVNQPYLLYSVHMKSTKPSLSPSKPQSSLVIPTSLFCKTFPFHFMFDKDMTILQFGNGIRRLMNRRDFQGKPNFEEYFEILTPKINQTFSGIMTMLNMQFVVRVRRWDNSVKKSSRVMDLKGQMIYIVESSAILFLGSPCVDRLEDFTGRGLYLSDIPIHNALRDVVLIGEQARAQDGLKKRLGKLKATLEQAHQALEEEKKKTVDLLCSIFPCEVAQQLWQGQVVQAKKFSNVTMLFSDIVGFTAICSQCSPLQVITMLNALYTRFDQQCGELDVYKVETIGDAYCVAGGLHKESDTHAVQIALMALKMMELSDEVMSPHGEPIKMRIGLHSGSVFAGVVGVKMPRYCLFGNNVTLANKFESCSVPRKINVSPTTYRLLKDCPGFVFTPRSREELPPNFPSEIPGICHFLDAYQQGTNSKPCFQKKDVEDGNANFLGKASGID

`C[C@H]1CCCN(c2nc(-c3cc(-c4ccon4)n(Cc4ccccc4F)n3)ncc2F)[C@H]1C(=O)O` (racemic) [Compound I-161]: the “Rat Mean Arterial Pressure peak change from baseline at 10 mpk” value (shortened to “Rat Mean Arterial Pressure peak change”) in assay [1] is on record as “B (B = −20 ≤ peak change from baseline at 10 mpk ≤ −10)”.

Consider `O=C(O)[C@H]1c2ccccc2CCN1c1nc(-c2cc(-c3ccon3)n(Cc3ccccc3F)n2)ncc1F` [Compound I-121], for which the “Rat Mean Arterial Pressure peak change” value in assay [1] is “A (A = −10 < peak change from baseline at 10 mpk < 0)”. Besides, in assay [2], the Emax was in the range of 60 to 80% and the EC50 was 100 to 500 nM.

Turning to `CC1(C(=O)O)CCN(c2nc(-c3cc(-c4ccon4)n(Cc4ccccc4F)n3)ncc2F)CC1` [Compound I-124], the “Rat Mean Arterial Pressure peak change” value in assay [1] was “B (B = −20 ≤ peak change from baseline at 10 mpk ≤ −10)”. Further, in assay [2], the Emax was 60 to 80% and the EC50 was in the range of 1 to 100 nM.

In the case of `CN(c1nc(-c2cc(-c3ccon3)n(Cc3ccccc3F)n2)ncc1F)C(C(=O)O)c1ccccc1` (stereo not drawn) [Compound I-142], the “Rat Mean Arterial Pressure peak change” value in assay [1] was “A (A = −10 < peak change from baseline at 10 mpk < 0)”. In addition, in assay [2], the Emax fell in the range of 80 to 100% and the EC50 lay in the range of 1 to 100 nM.

Take `C[C@H]1CCCN(c2nc(-c3cc(-c4ccon4)n(Cc4ccccc4F)n3)ncc2F)[C@H]1C(=O)O` [Compound I-329]: the “Rat Mean Arterial Pressure peak change” value in assay [1] is on record as “B (B = −20 ≤ peak change from baseline at 10 mpk ≤ −10)”.

On to `C[C@@H]1CCCN(c2nc(-c3cc(-c4ccon4)n(Cc4ccccc4F)n3)ncc2F)[C@@H]1C(=O)O` [Compound I-330], for which the “Rat Mean Arterial Pressure peak change” value in assay [1] is recorded as “C (C = peak change from baseline at 10 mpk < −20)”.

`CNS(=O)(=O)CCNc1nc(-c2cc(-c3ccon3)n(Cc3ccccc3F)n2)ncc1F` [Compound I-367]: in assay [2], the Emax fell in the range of 60 to 80% and the EC50 lay within 1 to 100 nM. Further, in assay [3], the EC50 was under 0.1 µM.

Regarding `CN(CCS(=O)(=O)O)c1nc(-c2cc(-c3ccon3)n(Cc3ccccc3F)n2)ncc1F` [Compound I-368], in assay [2], the Emax was 20 to 40% and the EC50 was 100 to 500 nM. Moreover, the EC50 in assay [3] was over 1 µM.

For the compound `O=C(O)[C@@H]1CCc2ccccc2[C@@H]1Nc1nc(-c2cc(-c3ccon3)n(Cc3ccccc3F)n2)ncc1F` [Compound I-369], in assay [2], the Emax fell in the range of 60 to 80% and the EC50 fell in the range of 1 to 100 nM. The EC50 in assay [3] was under 0.1 µM.

Regarding `O=C(O)[C@@H]1Cc2ccccc2[C@@H]1Nc1nc(-c2cc(-c3ccon3)n(Cc3ccccc3F)n2)ncc1F` [Compound I-371], in assay [2], the Emax was 10 to 20% and the EC50 is over 10000 nM. For the same compound, the EC50 in assay [3] is under 0.1 µM.

On to `CCOC(=O)c1csc(CN(C)c2nc(-c3cc(-c4ccon4)n(Cc4ccccc4F)n3)ncc2F)n1` [Compound I-372], for which, in assay [2], the Emax was 60 to 80% and the EC50 is 100 to 500 nM. Besides, the EC50 in assay [3] is 0.101 to 1 µM.

As to `CN(CCS(N)(=O)=O)c1nc(-c2cc(-c3ccon3)n(Cc3ccccc3F)n2)ncc1F` [Compound I-374], in assay [2], the Emax was in the range of 100 to 120% and the EC50 lay in the range of 100 to 500 nM. Also, the EC50 in assay [3] is under 0.1 µM.

As to `CN(Cc1nc(C(=O)O)co1)c1nc(-c2cc(-c3ccon3)n(Cc3ccccc3F)n2)ncc1F` [Compound I-375], in assay [2], the Emax fell in the range of 100 to 120% and the concentration for a half-maximal effect (EC50) lay within 100 to 500 nM. Moreover, the EC50 in assay [3] is over 1 µM.

For `CN(Cc1nc(C(=O)O)cn1C)c1nc(-c2cc(-c3ccon3)n(Cc3ccccc3F)n2)ncc1F` [Compound I-376], the Emax in assay [2] is 100 to 120%. In addition, the EC50 is 5000 to 10000 nM in assay [2] and over 1 µM in assay [3].

Regarding `O=C(O)[C@H]1[C@@H](C(F)(F)F)CCCN1c1nc(-c2cc(-c3ccon3)n(Cc3ccccc3F)n2)ncc1F` [Compound I-454], in assay [2], the Emax fell in the range of 20 to 40% and the EC50 was over 10000 nM. Moreover, the EC50 in assay [3] is under 0.1 µM.

Turning to `CC[C@H]1CCCN(c2nc(-c3cc(-c4ccon4)n(Cc4ccccc4F)n3)ncc2F)[C@H]1C(=O)O` [Compound I-455], in assay [2], the Emax lay in the range of 80 to 100% and the EC50 is 1 to 100 nM. In assay [3], the concentration giving a half-maximal response (EC50) was under 0.1 µM.
